From PubChem BioAssay (NCI)
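Compound exposure: 48 hours, 5 concentrations, 96-well plates. GI50: concentration for 50% inhibition of growth. TGI: total growth inhibition.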

Tests used:
Assay in all cases: NCI-60 cell line screen, 48 h
[1] = system: DU-145 prostate
[2] = system: A549 NSCLC
[3] = system: KM12 colon
[4] = system: SF-295 CNS
[5] = system: MDA-MB-231 breast
[6] = system: SW-620 colon
[7] = system: HL-60(TB) leukemia
[8] = system: IGROV1 ovarian
[9] = system: MDA-MB-468 breast
[10] = system: HCT-116 colon
[11] = system: NCI-H522 lung
[12] = system: HOP-62 NSCLC
[13] = system: CAKI-1 renal
[14] = system: HCC-2998 colon
[15] = system: LOX IMVI melanoma
[16] = system: SR leukemia
[17] = system: OVCAR-8 ovarian
[18] = system: M14 melanoma
[19] = system: SF-268 CNS
[20] = system: NCI-H226 lung
[21] = system: TK-10 renal
[22] = system: PC-3 prostate
[23] = system: EKVX NSCLC
[24] = system: UO-31 renal
[25] = system: HS 578T breast
[26] = system: OVCAR-5 ovarian
[27] = system: HT29 colon
[28] = system: ACHN renal

O=C(Nc1cccc(-c2cn(-c3ccc4oc(=O)ccc4c3)nn2)c1)Nc1cc(C(F)(F)F)cc(C(F)(F)F)c1
GI50 [1]: 8.09 µM
TGI [1]: > 100 µM
GI50 [2]: 5.1 µM
TGI [2]: > 100 µM
GI50 [3]: 5.2 µM
TGI [3]: > 100 µM
GI50 [4]: 3.31 µM
TGI [4]: > 100 µM
GI50 [5]: 18.2 µM
TGI [5]: > 100 µM
GI50 [6]: 55.5 µM
TGI [6]: > 100 µM
GI50 [7]: 6.5 µM
TGI [7]: > 100 µM
GI50 [8]: 8.87 µM
TGI [8]: > 100 µM
GI50 [9]: 2.43 µM
TGI [9]: 8.69 µM
GI50 [10]: 7.17 µM
TGI [10]: > 100 µM
GI50 [11]: 4.39 µM
TGI [11]: > 100 µM
GI50 [12]: 8.08 µM
TGI [12]: 66.9 µM
GI50 [13]: 6.3 µM
TGI [13]: > 100 µM
GI50 [14]: 8.14 µM
TGI [14]: > 100 µM
GI50 [15]: 7.55 µM
TGI [15]: > 100 µM
GI50 [16]: 5.63 µM
TGI [16]: > 100 µM
GI50 [17]: 5.73 µM
TGI [17]: > 100 µM
GI50 [18]: > 100 µM
TGI [18]: > 100 µM
GI50 [19]: 21.3 µM
TGI [19]: > 100 µM
GI50 [20]: 5.57 µM
TGI [20]: > 100 µM
GI50 [21]: 13.4 µM
TGI [21]: 56.9 µM
GI50 [22]: 4.07 µM
TGI [22]: > 100 µM
GI50 [23]: 5.04 µM
TGI [23]: > 100 µM
GI50 [24]: 6.34 µM
TGI [24]: > 100 µM
GI50 [25]: 5.16 µM
TGI [25]: > 100 µM
GI50 [26]: > 100 µM
TGI [26]: > 100 µM
GI50 [27]: > 100 µM
TGI [27]: > 100 µM
GI50 [28]: 6.86 µM
TGI [28]: 90.2 µM
